Test results taken from article PMC11217349, “Development of Nurr1 agonists from amodiaquine by scaffold hopping and fragment growing” (Communications Chemistry, 2024).
In brackets after ≈: the same amount, converted by molar mass. Several values for one entry are separate records, joined by “and”; a condition that tells them apart may be missing. Equal values may be shown once. Entries after “also recorded” stand apart in the source; their conditions may differ.

Experiments:
[1] = target: T1, human full-length Nurr1 homodimer (NurRE) (Homo sapiens, UniProt P43354); assay: Full-length Nurr1 reporter gene assay (NurRE); assay type: cell-based; settings: full-length human Nurr1 homodimer, HEK293T
T1 construct: The full-length human nuclear receptor Nurr1 (pcDNA3.1-hNurr1-NE; Addgene plasmid #102363); host or cells: HEK293T
Text: Activation of full-length human Nurr1 was studied in transiently transfected HEK293T cells using the reporter plasmids pFR-Luc-NBRE[14], pFR-Luc-POMC[14] or pFR-Luc-DR5[14] each containing one copy of the respective human Nurr1 response element NBRE Nl3, NurRE, or DR5. The full-length human nuclear receptor Nurr1 (pcDNA3.1-hNurr1-NE; Addgene plasmid #102363) and, for DR5, RXRα (pSG5-hRXR)[57] were overexpressed. pRL-SV40 (Promega) was used for the normalization of transfection efficacy and to observe test compound toxicity. […] After 24 h, the medium was changed to Opti-MEM without supplements, and cells were transiently transfected using Lipofectamine LTX reagent (Invitrogen) according to the manufacturer’s protocol. Five hours after transfection, cells were incubated with the test compounds in Opti-MEM supplemented with penicillin (100 U/mL), streptomycin (100 μg/mL) and 0.1% DMSO for 16 h before luciferase activity was measured using the Dual-Glo Luciferase Assay System (Promega) according to the manufacturer’s protocol on a Tecan Spark luminometer (Tecan Deutschland GmbH). Firefly luminescence was divided by Renilla luminescence and multiplied by 1000 resulting in relative light units (RLU) to normalize for transfection efficiency and cell growth. Fold activation was obtained by dividing the mean RLU of the test compound by the mean RLU of the untreated control. All samples were tested in at least three biologically independent experiments in duplicates. For dose-response curve fitting and calculation of EC50 values, the equation “[Agonist] vs. response -- Variable slope (four parameters)” was used in GraphPad Prism (version 7.00, GraphPad Software).

[2] = target: T2, human Nurr1 (hinge region and ligand binding domain) (Homo sapiens, UniProt P43354); assay: Gal4-Nurr1 hybrid reporter gene assay; assay type: cell-based
T2 construct: expressed in transfected cells; host or cells: HEK293T

[3] = system: Nurr1-regulated TH, VMAT2 and SOD2 mRNA in astrocytes (T98G); assay: Nurr1-regulated gene expression in T98G astrocytes (qPCR); assay type: cell-based, human; settings: vs DMSO control
[4] = target: T3, Nurr1 LBD (Homo sapiens, UniProt P43354); assay: Isothermal titration calorimetry (ITC); assay type: binding; settings: 25 °C
T3 construct: Nurr1 LBD protein (5–30 µM, expressed as described previously[21]); made in house
Protocol: ITC experiments were conducted on an Affinity ITC instrument (TA Instruments, New Castle, DE) at 25 °C with a stirring rate of 75 rpm. Nurr1 LBD protein (5–30 µM, expressed as described previously[21]) in buffer (20 mM Tris pH 7.5, 100 mM NaCl, 5% glycerol) containing 1–4% DMSO was titrated with the test compounds (30–150 μM in the same buffer containing 1-4% DMSO) in 26 injections (1 × 1 µL, 25 × 3-4 μL) with an injection interval of 120-150 s. As control experiments, the test compounds were titrated to the buffer, and the buffer was titrated to the Nurr1 LBD protein under otherwise identical conditions. Results were analyzed using NanoAnalyze software (version 3.11.0, TA Instruments, New Castle, DE) with independent binding models.

[5] = Aqueous solubility; assay type: physicochemical; settings: water, 25 °C, read-out: aq. solubility
Protocol: The mixture was agitated in a VWR Thermal Shake lite (VWR International GmbH, Darmstadt, Germany) for 24 h at 600 rpm and a constant temperature of 25 °C. The supersaturated mixtures were subsequently centrifuged at 23.300 rpm for 15 min (25 °C). Part of the supernatant was taken off for quantification by UV absorbance at 312 nm with external calibration. The external calibration samples contained 1% DMSO and the test samples were spiked with DMSO to 1% concentration right before the measurement. Absorbance was measured with a Tecan Spark luminometer (Tecan Deutschland GmbH, Crailsheim, Germany). The solubility test was repeated in three independent experiments.

[6] = system: HEK293T cells; assay: WST-8 cytotoxicity assay, HEK293T; assay type: cell-based, human; settings: for toxicity (WST-8): HEK293T cells, 24 h
Protocol: Each sample was prepared in four biologically independent repeats. After incubation for 24 h, the medium was refreshed and 10% water-soluble tetrazolinum salt (Cell Counting Kit-8, MedChemExpress) was added to assess metabolic activity. After 4 h, absorbance was measured at 450 nm using a Tecan Spark Cyto instrument (Tecan).

T2 sequence (P43354 360-595 limits assumed): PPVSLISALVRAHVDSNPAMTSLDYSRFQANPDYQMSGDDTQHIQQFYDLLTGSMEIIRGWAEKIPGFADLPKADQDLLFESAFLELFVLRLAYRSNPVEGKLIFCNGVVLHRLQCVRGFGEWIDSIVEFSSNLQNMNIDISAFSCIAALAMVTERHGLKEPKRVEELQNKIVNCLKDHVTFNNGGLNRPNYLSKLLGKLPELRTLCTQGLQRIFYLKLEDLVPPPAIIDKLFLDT
T3 sequence (P43354 360-595 limits assumed): as above
T1 sequence (P43354 whole entry): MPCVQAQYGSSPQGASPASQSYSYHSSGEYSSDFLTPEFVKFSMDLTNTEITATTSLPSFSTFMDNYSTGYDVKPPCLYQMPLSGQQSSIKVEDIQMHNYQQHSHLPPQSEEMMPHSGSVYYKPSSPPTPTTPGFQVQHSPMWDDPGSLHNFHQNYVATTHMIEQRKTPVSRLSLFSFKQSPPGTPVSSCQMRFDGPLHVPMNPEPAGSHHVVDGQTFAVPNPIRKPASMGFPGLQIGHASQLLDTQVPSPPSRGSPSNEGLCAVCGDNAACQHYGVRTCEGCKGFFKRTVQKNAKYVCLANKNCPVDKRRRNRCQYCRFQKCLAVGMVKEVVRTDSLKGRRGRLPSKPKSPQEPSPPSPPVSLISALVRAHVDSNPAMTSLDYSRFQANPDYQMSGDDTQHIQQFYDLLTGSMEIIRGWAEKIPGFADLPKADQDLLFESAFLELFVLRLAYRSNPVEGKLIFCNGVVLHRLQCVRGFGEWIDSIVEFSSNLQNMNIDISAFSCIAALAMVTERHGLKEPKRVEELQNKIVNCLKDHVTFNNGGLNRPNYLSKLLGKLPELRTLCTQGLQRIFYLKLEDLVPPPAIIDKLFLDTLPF

SMILES | EC50(NurRE) [1] | highest non-toxic concentration ([2]; Gal4-Nurr1 hybrid reporter gene assay, HEK293T) | EC50(Nurr1) ([2]; Gal4-Nurr1 hybrid reporter, HEK293T, mean ± SD, n ≥ 3) | fold less active than 36 as Nurr1 modulator ([2]; no agonism at 10 µM vs EC50 of 36) | SOD2 mRNA induction (mean) ([3]; 10 µM) [fold] | TH mRNA induction (mean) ([3]; 10 µM) [fold] | VMAT2 mRNA induction (mean) ([3]; 10 µM) [fold] | Kd (Nurr1 LBD) [4] | solubility at 24 h [5] [µg/mL] | toxicity (WST-8) [6] | EC50 [1] [nM] | EC50 ([2]; Gal4-Nurr1 hybrid reporter, HEK293T, mean ± SD, n ≥ 3, read-out: EC50(Nurr1)) [nM] | SOD2 mRNA induction (mean) ([3]; 0.1 µM) [fold] | TH mRNA induction (mean) ([3]; 0.1 µM) [fold] | VMAT2 mRNA induction (mean) ([3]; 0.1 µM) [fold] | SOD2 mRNA induction (mean) ([3]; 0.3 µM) [fold] | TH mRNA induction (mean) ([3]; 0.3 µM) [fold] | VMAT2 mRNA induction (mean) ([3]; 0.3 µM) [fold] | Kd [4] [nM] | rel. absorbance (450 nm) ([6]; HEK293T, 10 µM, WST-8, vs DMSO ctrl)
Cc1nc2c(Cl)cccn2c1NC(=O)c1ccc(-c2ccccc2)[nH]1 [Compound 29, N-(8-Chloro-2-methylimidazo[1,2-a]pyridin-3-yl)-5-phenyl-1H-pyrrole-2-carboxamide] | no activation (10 µM) | inactive (10 µM^b) | inactive (10 µM^b); also recorded: no activation (10 µM) | at least 100 fold | 1.131 | 1.042 | 0.9124 | no binding^b | 4.1 (≈ 11.7 µM) | inactive (10 µM) | – | – | – | – | – | – | – | – | – | –
Cc1nc2c(Cl)cccn2c1NC(=O)c1ccc(-c2ccc(N(C)C)cc2)o1 [Compound 36, N-(8-Chloro-2-methylimidazo[1,2-a]pyridin-3-yl)-5-(4-(dimethylamino)phenyl)furan-2-carboxamide] | – | – | – | – | – | – | – | – | 6.8 (≈ 17.2 µM) | no toxic effect; also recorded: non-toxic; also recorded: inactive (10 µM) | 94 ± 3 | 90 ± 5 | 1.308 | 1.414 | 1.925 | 1.894 | 1.603 | 1.791 | 170 | 85% and 95% and 80%
